Laboratory results published in patent US20230117034A1, “PYRAZOLOTRIAZINES” (Bayer Aktiengesellschaft, priority 2019, published 2023).

Columns and labels:
CDK2/CycE = biological target: T1, CDK2/CycE (Homo sapiens, UniProt P24941); experiment: CDK2/CycE kinase assay (TR-FRET, 2 mM ATP); assay type: biochemical; details: 2 mM ATP (high ATP); median; read-out: CDK2/CyclinE, 2 mM ATP (high ATP), IC50 (median)
T1 construct: purchased ProQinase GmbH (Freiburg, Germany); host or cells: insect cells (Sf9)
Excerpt: CDK2/CycE-inhibitory activity of compounds of the present invention was quantified employing the CDK2/CycE TR-FRET assay as described in the following paragraphs.
Recombinant fusion proteins of GST and human CDK2 and of GST and human CycE, expressed in insect cells (Sf9) and purified by Glutathion-Sepharose affinity chromatography, were purchase from ProQinase GmbH (Freiburg, Germany). As substrate for the kinase reaction biotinylated peptide biotin-Ttds-YISPLKSPYKISEG (C-terminus in amid form) was used which can be purchased e.g. form the company JERINI peptide technologies (Berlin, Germany).
For the assay 50 nanoL of a 100 fold concentrated solution of the test compound in DMSO was pipetted into a black low volume 384 well microtiter plate or a black 1536 well microtiter plate (both Greiner Bio-One, Frickenhausen, Germany), 2 microL of a solution of CDK2/CycE in aqueous assay buffer [50 millimol/L Tris/HCl pH 8.0, 10 millimol/L MgCl2, 1.0 millimol/L dithiothreitol, 0.1 millimol/L sodium ortho-vanadate, 0.01% (v/v) Nonidet-P40 (Sigma)] were added and the mixture was incubated for 15 min at 22° C. to allow pre-binding of the test compounds to the enzyme before the start of the kinase reaction. Then the kinase reaction was started by the addition of 3 microL of a solution of adenosine-tri-phosphate (ATP, 3.33 millimol/L=>final conc. in the 5 microL assay volume is 2 millimol/L) and substrate (1.25 micromol/L=>final conc. in the 5 microL assay volume is 0.75 micromol/L) in assay buffer and the resulting mixture was incubated for a reaction time of 25 min at 22° C. The concentration of CDK2/CycE was adjusted depending of the activity of the enzyme lot and was chosen appropriate to have the assay in the linear range, typical concentrations were in the range of 10 ng/ml. The reaction was stopped by the addition of 3 microL of a solution of TR-FRET detection reagents (0.333 micromol/L streptavidine-XL665 [Cisbio Bioassays, Codolet, France] and 1.67 nanomol/L anti-RB(pSer807/pSer8l 1)-antibody from BD Pharmingen [#558389] and 2 nanomol/L LANCE EU-W1024 labeled anti-mouse IgG antibody [Perkin-Elmer, product no. AD0077, as an alternative a Terbium-cryptate-labeled anti-mouse IgG antibody from Cisbio Bioassays can be used]) in an aqueous EDTA-solution (167 millimol/L EDTA, 0.2% (w/v) bovine serum albumin in 100 millimol/L HEPES pH 7.5).
The resulting mixture was incubated 1 h at 22° C. to allow the formation of complex between the phosphorylated biotinylated peptide and the detection reagents. Subsequently the amount of phosphorylated substrate was evaluated by measurement of the resonance energy transfer from the Eu-chelate to the streptavidine-XL. Therefore, the fluorescence emissions at 620 nm and 665 nm after excitation at 350 nm was measured in a TR-FRET reader, e.g. a Pherastar (BMG Labtechnologies, Offenburg, Germany) or a Viewlux (Perkin-Elmer). The ratio of the emissions at 665 nm and at […] was taken as the measure for the amount of phosphorylated substrate. The data were normalised (enzyme reaction without inhibitor=0% inhibition, all other assay components but no enzyme=100% inhibition).

[1] = test system: MDA-MB-231, human breast cancer cells; experiment: Proliferation assay MDA-MB-231 (crystal violet, 4 days); assay type: cell-based; details: Homo sapiens, MDA-MB-231, 96 h, MDA-MB-231 cells, median, read-out: Prolif-MDA MB-231, IC50-[mol/l] (median)
Experimental: Human tumour cells were originally obtained from the American Type Culture Collection (ATCC), or from the Deutsche Sammlung von Mikroorganismen und Zellkulturen (DSMZ, German Collection of Microorganisms and Cell Cultures). Cultivated tumour cells (CAL-120, human breast adenocarcinoma cells, DSMZ ACC-459; MDA-MB-231, human breast cancer cells, ATCC HTB-26) were plated at a density of 4,000 cells/well in a 96-well multititer plate in 200 microL of their respective growth medium supplemented 10% fetal calf serum. After 24 hours, the cells of one plate (zero-point plate) were stained with crystal violet (see below), while the medium of the other plates was supplemented with the test substances in various concentrations (0 micromol/L, as well as in the range of 0.01-10 micromol/L; the final concentration of the solvent dimethyl sulfoxide was adjusted to 0.1%) using a Tecan HP D300 Digital Dispenser. The cells were incubated for 4 days in the presence of test substances. Cell proliferation was determined by staining the cells with crystal violet: the cells were fixed by adding 20 microL/measuring point of an 11% glutaric aldehyde solution for 15 minutes at room temperature. After three washing cycles of the fixed cells with water, the plates were dried at room temperature. The cells were stained by adding 100 microL/measuring point of a 0.1% crystal violet solution (pH 3.0). After three washing cycles of the stained cells with water, the plates were dried at room temperature. The dye was dissolved by adding 100 microL/measuring point of a 10% acetic acid solution. The extinction was determined by photometry at a wavelength of 595 nm. The change of cell number, in percent, was calculated by normalization of the measured values to the extinction values of the zero-point plate (=0%) and the extinction of the untreated (0 μM) cells (=100%). The IC50 values (inhibitory concentration at 50% of maximal effect) were determined by means of a 4 parameter fit.

SMILES | IC50 (CDK2/CycE) [nM] | IC50 [1] [nM]
C[C@H]1CCCCN1c1nc(NCc2nc3ccccc3[nH]2)n2ncc(Br)c2n1 [Example 141, N-[(1H-benzimidazol-2-yl)methyl]-8-bromo-2-[(2S)-2-methylpiperidin-1-yl]pyrazolo[1,5-a][1,3,5]triazin-4-amine] | 707 | 37.8
Brc1cnn2c(NCc3nc4ccccc4[nH]3)nc(N3CCNCC3)nc12 [Example 128, N-[(1H-benzimidazol-2-yl)methyl]-8-bromo-2-(piperazin-1-yl)pyrazolo[1,5-a][1,3,5]triazin-4-amine] | 9630 | 16
CN1CCN(c2nc(NCc3nc4cc(F)ccc4[nH]3)n3ncc(Br)c3n2)CC1 [Example 134, 8-bromo-N-[(5-fluoro-1H-benzimidazol-2-yl)methyl]-2-(4-methylpiperazin-1-yl)pyrazolo[1,5-a][1,3,5]triazin-4-amine] | 12000 | 11.7
Brc1cnn2c(NCc3nc4ccccc4[nH]3)nc(N3CCN(C4CC4)CC3)nc12 [Example 138, N-[(1H-benzimidazol-2-yl)methyl]-8-bromo-2-(4-cyclopropylpiperazin-1-yl)pyrazolo[1,5-a][1,3,5]triazin-4-amine] | > 20000 | 556
NCCc1cccc2[nH]c(CNc3nc(N4CCOCC4)nc4c(Br)cnn34)nc12 [Example 112, N-{[7-(2-aminoethyl)-1H-benzimidazol-2-yl]methyl}-8-bromo-2-(morpholin-4-yl)pyrazolo[1,5-a][1,3,5]triazin-4-amine] | 4340 | 186
C[C@@H]1CN(c2nc(NCc3nc4ccccc4[nH]3)n3ncc(Br)c3n2)CCN1C [Example 135, N-[(1H-benzimidazol-2-yl)methyl]-8-bromo-2-[(3R)-3,4-dimethylpiperazin-1-yl]pyrazolo[1,5-a][1,3,5]triazin-4-amine] | 7750 | 44
[O-][S+]1CCN(c2nc(NCc3nc4ccccc4[nH]3)n3ncc(Br)c3n2)CC1 [Example 144, 4-(4-{[(1H-benzimidazol-2-yl)methyl]amino}-8-bromopyrazolo[1,5-a][1,3,5]triazin-2-yl)-1lambda^4-thiomorpholin-1-one] | 7810 | 185
C[C@@H]1CCCCN1c1nc(NCc2nc3ccccc3[nH]2)n2ncc(Br)c2n1 [Example 140, N-[(1H-benzimidazol-2-yl)methyl]-8-bromo-2-[(2R)-2-methylpiperidin-1-yl]pyrazolo[1,5-a][1,3,5]triazin-4-amine] | 1250 | 315
CC(C)c1cnn2c(NCc3nc4ccccc4[nH]3)nc(N3CC4(COC4)C3)nc12 [Example 9, N-[(1H-benzimidazol-2-yl)methyl]-2-(2-oxa-6-azaspiro[3.3]heptan-6-yl)-8-(propan-2-yl)pyrazolo[1,5-a][1,3,5]triazin-4-amine] | 14700 | 1180
CN1CCN(c2nc(NCc3nc4c(F)cccc4[nH]3)n3ncc(Br)c3n2)CC1 [Example 126, 8-bromo-N-[(4-fluoro-1H-benzimidazol-2-yl)methyl]-2-(4-methylpiperazin-1-yl)pyrazolo[1,5-a][1,3,5]triazin-4-amine] | 5990 | 13.1
CN1CCN(c2nc(NCc3nc4ccccc4[nH]3)n3ncc(Br)c3n2)CC1=O [Example 131, 4-(4-{[(1H-benzimidazol-2-yl)methyl]amino}-8-bromopyrazolo[1,5-a][1,3,5]triazin-2-yl)-1-methylpiperazin-2-one] | > 20000 | 682
CC(C)c1cnn2c(NCc3nc4ccccc4[nH]3)nc(NCC(C)(C)O)nc12 [Example 10, 1-{[4-{[(1H-benzimidazol-2-yl)methyl]amino}-8-(propan-2-yl)pyrazolo[1,5-a][1,3,5]triazin-2-yl]amino}-2-methylpropan-2-ol] | 874 | 79.9

The remaining lines, values ahead:

IC50 (CDK2/CycE) [nM] | IC50 [1] [nM] | SMILES
6380 | 276 | Brc1cnn2c(NCc3nc4ccccc4[nH]3)nc(N3CCN4CCC[C@@H]4C3)nc12 [Example 149, N-[(1H-benzimidazol-2-yl)methyl]-8-bromo-2-[(8aR)-hexahydropyrrolo[1,2-a]pyrazin-2 (1 H)-yl]pyrazolo[1,5-a][1,3,5]triazin-4-amine]
5420 | 12.7 | Fc1cccc(-c2nnc(CNc3nc(N4CCNCC4)nc4c(Br)cnn34)[nH]2)c1 [Example 152, 8-bromo-N-{[5-(3-fluorophenyl)-4H-1,2,4-triazol-3-yl]methyl}-2-(piperazin-1-yl)pyrazolo[1,5-a][1,3,5]triazin-4-amine]
10800 | 3.96 | CN1CCN(c2nc(NCc3nc4cc(Cl)ccc4[nH]3)n3ncc(Br)c3n2)CC1 [Example 163, 8-bromo-N-[(5-chloro-1H-benzimidazol-2-yl)methyl]-2-(4-methylpiperazin-1-yl)pyrazolo[1,5-a][1,3,5]triazin-4-amine]
4700 | 164 | O=S1(=O)CCN(c2nc(NCc3nc4ccccc4[nH]3)n3ncc(Br)c3n2)CC1 [Example 166, 4-(4-{[(1H-benzimidazol-2-yl)methyl]amino}-8-bromopyrazolo[1,5-a][1,3,5]triazin-2-yl)-1 lambda^6-thiomorpholine-1,1-dione]
9280 | 174 | CN1CCN(c2nc(NCc3nc4ccccc4[nH]3)n3ncc(Br)c3n2)C(CO)C1 (stereo not shown) [Example 155, [1-[4-(1H-benzimidazol-2-ylmethylamino)-8-bromo-pyrazolo[1,5-a][1,3,5]triazin-2-yl]-4-methyl-piperazin-2-yl]methanol]
3020 | 4.79 | Cc1ccc2[nH]c(CNc3nc(N4CCOCC4)nc4c(Br)cnn34)nc2c1 [Example 157, 8-bromo-N-[(5-methyl-1H-benzimidazol-2-yl)methyl]-2-(morpholin-4-yl)pyrazolo[1,5-a][1,3,5]triazin-4-amine]
4630 | 4.02 | Clc1ccc2[nH]c(CNc3nc(N4CCOCC4)nc4c(Br)cnn34)nc2c1 [Example 162, 8-bromo-N-[(5-chloro-1H-benzimidazol-2-yl)methyl]-2-(morpholin-4-yl)pyrazolo[1,5-a][1,3,5]triazin-4-amine]
4470 | 26.2 | C[C@H]1CN(c2nc(NCc3nnc(-c4cccc(F)c4)[nH]3)n3ncc(Br)c3n2)CCN1C [Example 154, 8-bromo-2-[(3S)-3,4-dimethylpiperazin-1-yl]-N-{[5-(3-fluorophenyl)-4H-1,2,4-triazol-3-yl]methyl}pyrazolo[1,5-a][1,3,5]triazin-4-amine]
